Test [1] deals with HCT 116 (colorectal carcinoma cell line). Put plainly: cells. The test is classed as cell-based, human. To be noted: for IC50: Homo sapiens, MTT. How it is done:
(§1) For biological studies three different cell lines were used: the NHDF-Neo cell line (Lonza, Poland), the HCT-116 cell line (American Type Culture Collection, ATCC, Manassas, VA, USA), and the MCF-7 cell line (purchased by the Maria Sklodowska-Curie Memorial Cancer Center and Institute of Oncology, Gliwice, Poland and gifted for our research). Cells were cultured in 96-well plates (Sarstedt, Nümbrecht, Germany) using RPMI 1640 or DMEM/F12 media (100 µL per well) supplemented with fetal bovine serum (FBS, EURx, Gdańsk, Poland), and with Antibiotic–Antimycotic Solution (Avantor, Gliwice, Poland). […] Stock solutions of the tested compounds were prepared in DMSO and stored under appropriate conditions. Immediately prior to the experiment, these solutions were diluted to the desired concentrations using a growth medium. In no dilution was the DMSO content higher than 1% v/v. The resulting solutions were then used to treat cells (100 µL per well). […] In parallel, the influence of copper ions on cellular proliferation was investigated. In this case, the procedure was analogous to the previously described one, with the difference that glycoconjugates were added in the culture medium with the addition of CuCl2. […] ACROS Organics) was applied following the manufacturer’s protocol. Absorbance of the formazan, formed during the test and dissolved in 100 µL of DMSO, was measured spectrophotometrically at 570 nm using a plate reader (Epoch, Bio-Tek, Winooski, VT, USA). The measured absorbance was analyzed to assess proliferation, where tested samples were compared with the untreated controls (100%). The results from MTT were presented as the mean of three experiments (biological replicates). For each experimental condition within a replicate, four technical repetitions were performed. Technical repetitions were averaged to obtain a single value per replicate. Statistical analyses were conducted using means of the biological replicates. The percentage of viable cells and the standard deviation (SD) were calculated in Excel (Microsoft Office 365, A3 for faculty), using the STDEV.S formula, which determines the standard deviation for a sample set. […] The results are expressed as the average value ± standard deviation (SD). To evaluate statistical significance, two-way analysis of variance (ANOVA) with replication was performed to assess the effects of compound type and concentration on cell proliferation. […] All statistical tests were performed in Excel. […] Two cancer cell lines were chosen for the study: HCT 116 (colorectal carcinoma cell line) and MCF-7 (human breast adenocarcinoma cell line). This selection was not random, as in both types of cancer cell lines overexpression of glucose and galactose transporters is observed. To determine if glycoconjugation enhanced the selectivity of the betulin derivatives, cytotoxicity tests on Normal Human Dermal Fibroblast-Neonatal cells (NHDF-Neo) were also conducted. […] The incubation time for individual cell lines varied from 24 to 72 h, due to differences in the doubling time of these cell lines.

Test [2] concerns Normal Human Dermal Fibroblast-Neonatal cells (NHDF-Neo). Put plainly: MTT cytotoxicity assay, healthy NHDF-Neo cells. The settings on record: 24 h, incubation 24 h. The test is classed as cell-based. Here is the method: as §1
Background: Tetrazolium assays rely on reduction of a dye to a coloured formazan, in cell work by metabolically active cells.

In test [3] the test system is MCF-7 (human breast adenocarcinoma cell line). Put plainly: MTT cytotoxicity assay, MCF-7 cells. To be noted: for IC50: Homo sapiens, MCF7, 72 h, MTT, incubation 72 h. Format: cell-based. How it is done: as §1, with “Poland). Cells were seeded and incubated for 24 h prior to treatment:” for “Poland).”, “proliferation. When significant main effects were observed (p < 0.05), pairwise comparisons between betulin (BN) and each analogue at corresponding concentrations were conducted using two-tailed unpaired t-tests.” for “proliferation.”, “conducted. The selection of this healthy cell line, so atypical in relation to the cancer cells tested, was based on the desire to compare the selectivity index determined for the currently obtained glycoconjugates with the results obtained for the betulin derivatives we described earlier and draw preliminary conclusions on structure-selectivity relationships.” for “conducted.”

Setting [4] is: HCT-116, 24 h, incubation 24 h, no copper added.
The mark [5] stands for this setting: HCT-116, 48 h, incubation 48 h, addition of CuCl2 at 20 µM.
Where [6] appears, read: HCT-116, 48 h, incubation 48 h, no copper added.

Bounds are passed on as bounds.

Broadly, the IC50 is the concentration needed to halve the response being measured. Regarding `C=C(C)[C@@H]1CC[C@]2(COC(=O)CCC(=O)OCc3cn([C@@H]4O[C@H](COC(C)=O)[C@@H](OC(C)=O)[C@H](OC(C)=O)[C@H]4OC(C)=O)nn3)CC[C@]3(C)C(CCC4[C@@]5(C)CC[C@H](OC(C)=O)C(C)(C)C5CC[C@]43C)C12` (some centres unmarked) [5a], the IC50 is over 200 µM in test [1] (setting [4]); over 200 µM in test [1] (setting [5]); over 200 µM in test [1] (setting [6]); over 200 µM in test [2] (addition of CuCl2 at 20 µM); over 200 µM in test [2] (no copper added); 109 ± 5.85 µM in test [3] (addition of CuCl2 at 20 µM). For the same compound, the IC50 in test [3] (no copper added) worked out at 163 ± 7.65 µM. Besides, the entries for the “SI MCF-7 (ratio of IC50 of NHDF-Neo to IC50 of cancer cells)” value in test [3] (addition of CuCl2 at 20 µM) and in test [3] (no copper added) were over 1.8 and over 1.2, respectively.

Consider `C=C(C)[C@@H]1CC[C@]2(COC(=O)CCC(=O)OCc3cn([C@@H]4O[C@H](COCc5ccccc5)[C@@H](OCc5ccccc5)[C@H](OCc5ccccc5)[C@H]4OCc4ccccc4)nn3)CC[C@]3(C)C(CCC4[C@@]5(C)CC[C@H](OC(C)=O)C(C)(C)C5CC[C@]43C)C12` (some centres unmarked) [5b], for which the IC50 in test [1] (setting [4]) was over 200 µM; in test [1] (setting [6]) it was over 200 µM; in test [2] (no copper added), over 200 µM; in test [3] (no copper added) it was 168 ± 11.7 µM. The “SI MCF-7 (ratio of IC50 of NHDF-Neo to IC50 of cancer cells)” value in test [3] (no copper added) is reported as over 1.2.

With `C=C(C)[C@@H]1CC[C@]2(COC(=O)CCC(=O)OCc3cn([C@@H]4O[C@H](COC(C)=O)[C@@H](OC(C)=O)[C@H](OC(C)=O)[C@H]4OC(C)=O)nn3)CC[C@]3(C)C(CCC4[C@@]5(C)CC[C@H](O)C(C)(C)C5CC[C@]43C)C12` (some centres unmarked) [5c], the IC50 in test [1] (setting [4]) is over 200 µM; in test [1] (setting [5]) it was over 200 µM; in test [1] (setting [6]) it was over 200 µM; in test [2] (addition of CuCl2 at 20 µM) it was over 200 µM; in test [2] (no copper added) it was over 200 µM; in test [3] (addition of CuCl2 at 20 µM) it was 70.7 ± 5.44 µM. This compound gave an IC50 in test [3] (no copper added) of 128 ± 1.35 µM. The “SI MCF-7 (ratio of IC50 of NHDF-Neo to IC50 of cancer cells)” value in test [3] (addition of CuCl2 at 20 µM) is over 2.8; in test [3] (no copper added), over 1.6.

For the compound `C=C(C)[C@@H]1CC[C@]2(COC(=O)CCC(=O)OCc3cn([C@@H]4O[C@H](COC(C)=O)[C@H](OC(C)=O)[C@H](OC(C)=O)[C@H]4OC(C)=O)nn3)CC[C@]3(C)C(CCC4[C@@]5(C)CC[C@H](OC(C)=O)C(C)(C)C5CC[C@]43C)C12` (some centres unmarked) [6a], the IC50 was over 200 µM in test [1] (setting [4]); over 200 µM in test [1] (setting [5]); over 200 µM in test [1] (setting [6]); over 200 µM in test [2] (addition of CuCl2 at 20 µM); over 200 µM in test [2] (no copper added); 59.8 ± 1.85 µM in test [3] (addition of CuCl2 at 20 µM). It took 123 ± 6.84 µM to reach half-maximal inhibition in test [3] (no copper added) (IC50). In addition, the “SI MCF-7 (ratio of IC50 of NHDF-Neo to IC50 of cancer cells)” value in test [3] (no copper added) was over 1.6.

Consider `C=C(C)[C@@H]1CC[C@]2(COC(=O)CCC(=O)OCc3cn([C@@H]4O[C@H](COCc5ccccc5)[C@H](OCc5ccccc5)[C@H](OCc5ccccc5)[C@H]4OCc4ccccc4)nn3)CC[C@]3(C)C(CCC4[C@@]5(C)CC[C@H](OC(C)=O)C(C)(C)C5CC[C@]43C)C12` (some centres unmarked) [6b], for which the IC50 in test [1] (setting [4]) was over 200 µM; in test [1] (setting [6]) it was over 200 µM; in test [2] (no copper added) it was over 200 µM; in test [3] (no copper added), 184 ± 7.59 µM. Moreover, the “SI MCF-7 (ratio of IC50 of NHDF-Neo to IC50 of cancer cells)” value in test [3] (no copper added) is recorded as over 1.1.

As for `C=C(C)[C@@H]1CC[C@]2(COC(=O)CCC(=O)OCc3cn(CCO[C@@H]4O[C@H](COC(C)=O)[C@@H](OC(C)=O)[C@H](OC(C)=O)[C@H]4OC(C)=O)nn3)CC[C@]3(C)C(CCC4[C@@]5(C)CC[C@H](OC(C)=O)C(C)(C)C5CC[C@]43C)C12` (some centres unmarked) [7a], the IC50 is over 200 µM in test [1] (setting [4]); 150 ± 8.01 µM in test [1] (setting [5]); over 200 µM in test [1] (setting [6]); over 200 µM in test [2] (addition of CuCl2 at 20 µM); over 200 µM in test [2] (no copper added); 135 ± 10.2 µM in test [3] (addition of CuCl2 at 20 µM). Besides, in test [3] (no copper added), the half-maximal inhibitory concentration (IC50) was 144 ± 4.7 µM. Also, the “SI HCT 116 (ratio of IC50 of NHDF-Neo to IC50 of cancer cells)” value in test [1] (addition of CuCl2 at 20 µM) is listed as over 1.3. The results for the “SI MCF-7 (ratio of IC50 of NHDF-Neo to IC50 of cancer cells)” value in test [3] (addition of CuCl2 at 20 µM) and in test [3] (no copper added) were over 1.5 and over 1.4, respectively.

Regarding `C=C(C)[C@@H]1CC[C@]2(COC(=O)CCC(=O)OCc3cn(CCCO[C@@H]4O[C@H](COC(C)=O)[C@@H](OC(C)=O)[C@H](OC(C)=O)[C@H]4OC(C)=O)nn3)CC[C@]3(C)C(CCC4[C@@]5(C)CC[C@H](OC(C)=O)C(C)(C)C5CC[C@]43C)C12` (some centres unmarked) [7b], the IC50 in test [1] (setting [4]) is over 200 µM; in test [1] (setting [5]), 112.5 ± 0.57 µM; in test [1] (setting [6]), over 200 µM; in test [2] (addition of CuCl2 at 20 µM), over 200 µM; in test [2] (no copper added) it was over 200 µM; in test [3] (addition of CuCl2 at 20 µM), 124 ± 1.64 µM. This compound also showed an IC50 in test [3] (no copper added) of 152 ± 2.91 µM. In test [1] (addition of CuCl2 at 20 µM), the “SI HCT 116 (ratio of IC50 of NHDF-Neo to IC50 of cancer cells)” value is over 1.8. Further, the “SI MCF-7 (ratio of IC50 of NHDF-Neo to IC50 of cancer cells)” value in test [3] (addition of CuCl2 at 20 µM) is on record as over 1.6; in test [3] (no copper added) it was over 1.3.

Turning to `C=C(C)[C@@H]1CC[C@]2(COC(=O)CCC(=O)OCc3cn(CCO[C@@H]4O[C@H](COC(C)=O)[C@@H](OC(C)=O)[C@H](OC(C)=O)[C@H]4OC(C)=O)nn3)CC[C@]3(C)C(CCC4[C@@]5(C)CC[C@H](O)C(C)(C)C5CC[C@]43C)C12` (some centres unmarked) [7c], the IC50 was over 200 µM in test [1] (setting [4]); over 200 µM in test [1] (setting [5]); over 200 µM in test [1] (setting [6]); over 200 µM in test [2] (addition of CuCl2 at 20 µM); over 200 µM in test [2] (no copper added); 118 ± 1.42 µM in test [3] (addition of CuCl2 at 20 µM). In test [3] (no copper added), this compound yielded an IC50 of 135 ± 7.92 µM. The “SI MCF-7 (ratio of IC50 of NHDF-Neo to IC50 of cancer cells)” value in test [3] (addition of CuCl2 at 20 µM) is given as over 1.7; in test [3] (no copper added), over 1.5.

In the case of `COc1cccc2c1C(=O)c1c(O)c3c(c(O)c1C2=O)C[C@@](O)(C(=O)CO)C[C@@H]3O[C@H]1C[C@H](N)[C@H](O)[C@H](C)O1` [Doxorubicin, doxorubicin, reference compound], the IC50 in test [1] (setting [4]) was determined as 13.2 ± 0.58 µM; in test [1] (setting [6]), 1.89 ± 0.19 µM; in test [3] (no copper added), 0.29 ± 0.04 µM.

The values are drawn from paper PMC12153776, “Synthesis and Preliminary Cytotoxicity Evaluation of 3-Lup-20(29)-Ene-3β,28-Diol Glycoconjugates Containing a Succinic Linker and a 1,2,3-Triazole Ring” (Cancers, 2025).
